Test results taken from US9149468B2, “Multicomponent crystals made ([2-amino-6-(4-fluoro-benzylamino)-pyridin-3-yl]-carbamic acid ethyl ester and 2-[2-[(2,6-dichlorphenyl)-amino]-phenyl]-acetic acid” (TEVA GmbH, priority 2010, dated 2015).
Where a name gives a salt, the structure may show the parent alone. Read-outs that look alike come from different tables or passages of the source.

Legend:
[1] = mice, 15 mg per kg flupirtine maleate combined with various dosages of NSAIDS; cited from earlier work
[2] = rat, 35 mg per kg flupirtine maleate combined with various dosages of NSAIDS; cited from earlier work
[3] = pain and inflammation model (methods of DE 36 65 538); type: in vivo; details: animal model
Text: The methods disclosed therein are herewith incorporated as a reference, […]

## CCOC(=O)Nc1ccc(NCc2ccc(F)cc2)nc1N [flupirtine maleate]
[1]
  effect on antinociceptive activity of paracetamol, acetyl salicylic acid, and diclofenac: enhances
[2]
  effect on antinociceptive activity of paracetamol, acetyl salicylic acid, and diclofenac: enhances

## CCOC(=O)Nc1ccc(NCc2ccc(F)cc2)nc1N.O=C(O)Cc1ccccc1Nc1c(Cl)cccc1Cl [multicomponent crystal according to the invention of ([2-amino-6-(4-fluoro-benzylamino)-pyridin-3-yl]carbamic acid ethyl ester and 2-[2-[(2,6-dichlorophenyl)-amino]-phenyl]acetic acid]
[3]
  effects in pain and inflammation model compared with the test results of DE 36 65 538: qualitatively comparable
